From paper PMC6370762, “Endogenous pore-forming protein complex targets acidic glycosphingolipids in lipid rafts to initiate endolysosome regulation” (Communications Biology, 2019)
Read-outs that look alike come from different tables or passages of the source.

Legend:
[1] = target: T1, βγ-CAT; conditions: PBS pH 7.4, 37 °C; 1:1 global fit; gangliosides bind the BmALP1 subunit
T1 construct: gene BmALP1

[2] = target: BmTFF3 (Bombina maxima, UniProt B2BRT2); conditions: PBS pH 7.4, 37 °C; 1:1 global fit; also bound on lipid overlay strips
[3] = target: T1, βγ-CAT; conditions: PBS pH 7.4, 37 °C; 1:1 global fit; site on BmTFF3 subunit

Sequence of BmTFF3 (B2BRT2 21-166 limits assumed): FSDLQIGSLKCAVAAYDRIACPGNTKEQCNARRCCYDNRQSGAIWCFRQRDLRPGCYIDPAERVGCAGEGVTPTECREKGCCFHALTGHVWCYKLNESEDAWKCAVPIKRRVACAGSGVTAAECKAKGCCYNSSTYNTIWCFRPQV

Substance | Kd [1] [nM] | Kd [2] [nM] | Kd [3] [nM]
GD1a | 76.3 |  | 
GD1b | 521 |  | 
GD3 | 46.7 |  | 
GM1 | 30.5 |  | 
GM2 | 53.7 |  | 
GM3 | 10.2 |  | 
GM4 | 46.3 |  | 
GT1b | 527 |  | 
sulfatides |  | ~62.3 | 65.5
